Experimental data: publication PMC3301443 (Scientific Reports, 2012)

Tests used:
KDHba = type: biochemical, Burkholderia ambifaria; conditions: aldehyde oxidation
PadA = target: T1, PadA (Escherichia coli, UniProt P80668); experiment: in vitro enzyme kinetics; type: biochemical; conditions: aldehyde oxidation
T1 sequence (P80668 1-499): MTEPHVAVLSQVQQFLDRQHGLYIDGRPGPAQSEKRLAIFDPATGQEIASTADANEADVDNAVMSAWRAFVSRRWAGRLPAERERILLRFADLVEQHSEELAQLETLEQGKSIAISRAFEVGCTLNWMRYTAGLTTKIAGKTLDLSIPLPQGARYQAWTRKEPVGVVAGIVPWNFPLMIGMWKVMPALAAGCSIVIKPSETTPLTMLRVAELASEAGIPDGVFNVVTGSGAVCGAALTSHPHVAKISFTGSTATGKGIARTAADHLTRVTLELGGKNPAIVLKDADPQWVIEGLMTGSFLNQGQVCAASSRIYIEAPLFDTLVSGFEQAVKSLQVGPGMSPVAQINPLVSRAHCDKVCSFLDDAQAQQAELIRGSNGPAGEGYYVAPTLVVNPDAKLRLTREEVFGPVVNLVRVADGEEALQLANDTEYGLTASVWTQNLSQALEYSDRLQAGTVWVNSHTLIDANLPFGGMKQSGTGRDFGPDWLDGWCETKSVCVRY

Row | Compound | Km (KDHba) | Km (PadA)
1 | CC(C)C=O [isobutanal] | 34500 µM | –
2 | CC(C)CCC=O [isohexanal] | 520 µM | –
3 | CC(C)CC=O [isopentanal] | – | 1950 µM
